According to ChEMBL document CHEMBL3507680, “University of Dundee, Gates Library screen for HepG2 cell viability”:

experiment: Human HepG2 cell viability assay in 384 well format; format: toxicity, cell-based; design: dose 125 nL, time 70.5 hour; concentration not given beside the values; details: HepG2 cells, read-out: Inhibition

| Structure (SMILES) | cytotoxicity at 70.5 h [%] |
| --- | --- |
| OCC(O)CSCc1nnc(-c2cccc(F)c2)o1 (centres undefined) | -14.7 |
| CCS(=O)(=O)CC(C)N(C)C(=O)NCCc1cccc(F)c1F (centres undefined) | -5.89 |
| N#Cc1cccnc1NCc1cccc(C(=O)NCC2CCCCO2)c1 (centres undefined) | -10.4 |
| COC(=O)C(C)N1CCCc2cc(OC)ccc2C1 (centres undefined) | -4.67 |
| O=C(NCCNc1cncc(Br)c1)c1ccc(O)cc1 | -8.4 |
| O=C(NCCc1cccs1)N1CCCC1CCCO (centres undefined) | -9.42 |
| CCCc1nn(C2CCN(C(C)C)C2=O)c(=O)o1 (centres undefined) | -1.04 |
| COc1cccc(CNc2nc(C)cc(C)n2)c1OC | -2.87 |
| CC(NC(=O)Cn1cc(C(N)=O)c(-c2ccccc2)n1)C1CC1 (centres undefined) | -10 |
| CCCN(C(=O)c1cnns1)C1CCCN(Cc2ccccc2)C1 (centres undefined) | -7.29 |
| CCOc1ccccc1C(CC(=O)N(C)C)NC(C)=O (centres undefined) | -0.953 |
| CCOc1ccccc1C(CC(=O)N(C)c1ccccc1)NC(C)=O (centres undefined) | 15.9 |
| Cn1cnc2c1CCN(CCOc1ccc3c(c1)CCC(=O)N3)C2 | -12.1 |
| O=C(Nc1ccc(CCN2CCSCC2)cc1)NC1CC1 | -11.9 |
| CN1CCOC(CNCc2c(Cl)nc3ccccn23)C1 (centres undefined) | -19.2 |
| Cc1cc(C)n(C2CN(CC(=O)NCc3ccccn3)C2)n1 | -16.2 |
| O=C(CCc1nc(C2CC2)no1)c1ccc2c(c1)OCCO2 | -16.9 |
| CC(C(=O)Nc1cc(F)ccc1F)N1CCN(Cc2ncc[nH]2)CC1 (centres undefined) | 42.5 |
| O=C(COc1ccccc1NCc1ccc(F)cc1)N1CCOCC1 | -20.5 |
| COc1ccc(C(=O)CCc2nc(C3CC3)no2)cc1F | -13.6 |
| NC(=O)c1ccc(OCC(=O)N2CCCC2c2ccc[nH]2)cc1 (centres undefined) | 42.3 |
| O=C(Cn1ncc2ccccc21)Nc1ccnn1CC1CCOC1 (centres undefined) | -23.1 |
| O=C1NC(c2cnc(C3CCC3)s2)Nc2ccccc21 (centres undefined) | -9.55 |
| Cc1cc(NC(=O)NCC2(O)CCCC2)ccn1 | -14 |

| Structure (SMILES) | cytotoxicity at 70.5 h [%] |
| --- | --- |
| CN(Cc1cnccn1)S(=O)(=O)c1ccc(C(F)(F)F)nc1 | 36.5 |
| CC(C)c1noc(CCNC(=O)N2CCSC(C(C)C)C2)n1 (centres undefined) | -3.03 |
| Cc1nnnn1-c1cc(NCc2cc(C#N)ccc2F)ccc1F | -10.8 |
| COC(=O)CCN(C)Cc1cc(Br)cs1 | -21.1 |
| CC(C)c1noc(CCC(=O)N2CCSCC2)n1 | -18.8 |
| CCN(C(C)=O)C(c1ccc(Cl)cc1)c1ccccn1 (centres undefined) | -14.6 |
| COCCC1(CNC(=O)Nc2ccnc(C)c2)CCCC1 | -20.4 |
| CC1CN(C)CCN1Cc1cccc(C(=O)NCc2ccco2)c1 (centres undefined) | 27.4 |
| Cc1ccc(N2CCCC(N3CCC(CO)CC3)C2=O)cc1 (centres undefined) | 12.9 |
| CCCN1CCC(C(=O)NCCN(CC)c2ccccc2C)CC1 | 17.6 |
| Cn1ncc2cnn(CC(O)COc3cccc4[nH]ccc34)c2c1=O (centres undefined) | 39.5 |
| O=C(NCCCOCC1CC1)Nc1ccc(F)cc1 | 0.857 |
| COc1ccc(C)cc1NC(=O)CNc1ccn(CC(N)=O)n1 | -9.21 |
| CS(=O)(=O)N1CCN(C(=O)c2[nH]c3ccc(Cl)cc3c2Cl)CC1 | -6.15 |
| COc1cc(Cl)c(C)cc1NC(=O)CNc1ccn(CC(N)=O)n1 | -7.27 |
| CC(=O)N1CCN(C(=O)C(C)Nc2ccc3ncsc3c2)CC1 (centres undefined) | 0.285 |
| CNC(=O)NC(=O)COc1c(C(C)=O)ccc(Cl)c1Cl | -9.38 |
| CC(=O)c1ccc(Cl)c(Cl)c1OCC(=O)NC(C)C | -6.15 |
| CNC(=O)COc1c(C(C)=O)ccc(Cl)c1Cl | -8.98 |
| CC(=O)c1cccc(NC(=O)NCCOCC2CC2)c1 | -6.67 |
| O=C(NCc1ccco1)c1cccc(CN2CCCC2CO)c1 (centres undefined) | -8.88 |
| CC(C(=O)NC1CC1)S(=O)(=O)c1cc2c(cc1Cl)OCCO2 (centres undefined) | -8.64 |
| CCn1ccnc1SCCn1cnc2ccsc2c1=O | -10 |
| CC(C)NC(=O)C(C)S(=O)(=O)c1cc2c(cc1Cl)OCCO2 (centres undefined) | -7.06 |

| Structure (SMILES) | cytotoxicity at 70.5 h [%] |
| --- | --- |
| COc1cncc(N2CCN(Cc3ccncc3Cl)CC2)n1 | -9.33 |
| Cc1nsc(NCc2ccc(CS(=O)(=O)NC(C)C)cc2)n1 | -9.39 |
| Cn1cc(CNc2cnn(CC3CCCO3)c2)c(-c2ccncc2)n1 (centres undefined) | 4.43 |
| Cc1ccc(C)c(OCC(O)Cn2ncc3cnn(C)c(=O)c32)c1 (centres undefined) | 6.69 |
| Cc1nsc(NCc2ccc(S(=O)(=O)N(C)C(C)C)cc2)n1 | 16.6 |
| COC(=O)C1CCCCN1Cc1cccc(C(=O)NCc2ccco2)c1 (centres undefined) | -10.4 |
| CC(C)OCCOCc1cccc(NC(=O)N2CCCC(O)C2)c1 (centres undefined) | -9.87 |
| COc1ccc(CNC2CCN(c3ccccc3)C2)c(OC)c1OC (centres undefined) | 19.7 |
| COc1cncc(N2CCN(Cc3ccco3)CC2)n1 | -12.1 |
| CCN(CCNC(=O)C1CCN(C(C)=O)CC1)c1ccccc1C | -12.4 |
| CCc1nc(CN2CCN(C(=O)c3csc(C(C)C)n3)CC2)no1 | 33.2 |
| Cc1ccccc1CS(=O)(=O)CC(=O)N(C)Cc1cccc(F)c1 | -6.34 |
| Cc1noc(C)c1CS(=O)(=O)CC(=O)N(C)Cc1cccc(F)c1 | -3.7 |
| CC(=O)NC1(C(=O)N(C)Cc2c(C)noc2C)CCCCC1 | 20.8 |
| COc1ccccc1N1CCC(CNS(=O)(=O)c2cccs2)C1 (centres undefined) | -6.04 |
| CC(C)C(=O)N1CCC(NCc2c(C(C)C)nn(C)c2N(C)C)CC1 | -5.89 |
| O=C1OCCN1CCCN1CCCC1c1ccc(O)cc1 (centres undefined) | -3.89 |
| COC(=O)C(NC(=O)COC1CCCCC1)c1ccccc1 (centres undefined) | 5.11 |
| CNC(=O)C(C)S(=O)(=O)Cc1csc(-c2cccs2)n1 (centres undefined) | -7.57 |
| CCN1CCN(c2ccc(C(=O)NCCn3ccnc3)cc2F)CC1 | -3.77 |
| CN(C(=O)CN1CCc2nn(C)c(=O)cc2C1)c1nccs1 | -4.13 |
| CCCn1nc2c(cc1=O)CN(CC(=O)N(C)c1nccs1)CC2 | -4.23 |
| Cc1cc(C(=O)NS(=O)(=O)Cc2ccon2)c(C)n1C(C)C | -4.61 |
| CNC(=O)C1CCCN(C(=O)NCCC2Cc3ccccc3C2)C1 (centres undefined) | -1.76 |

| Structure (SMILES) | cytotoxicity at 70.5 h [%] |
| --- | --- |
| Cc1cc(C(=O)NS(=O)(=O)Cc2ccon2)c(C)o1 | -3.93 |
| COCc1nc(C(=O)N2CCN(Cc3ccsc3)CC2)cs1 | -0.448 |
| COCCN1CCC(NCc2c(C(C)C)nn(C)c2N(C)C)CC1 | 24.2 |
| CC(C)c1nn(C)c(N(C)C)c1CNC1CCN(CC2CC2)CC1 | 0.338 |
| c1cc(CN2CCSC3(CCCCC3)C2)no1 | -1.3 |
| c1cc(CN2CCOC3(CCCC3)C2)no1 | -2.72 |
| COc1ccccc1N1CCC(CNCc2c(C)nn(C)c2OC)C1 (centres undefined) | 0.53 |
| CC(=O)N1CCCN(C(C)c2ccc(Br)cc2)CC1 (centres undefined) | 17.2 |
| CCCc1nc(CNC2(c3nccs3)CCCC2)cs1 | 4.59 |
| c1cc(CN2CCCC2)ccc1CNc1cncc2nnnn12 | -4.34 |
| c1cc(N2CCSCC2)ccc1CNc1cncc2nnnn12 | -12.4 |
| c1ccc(CN2CCCC2)c(CNc2cncc3nnnn23)c1 | -7.51 |
| CN(CC(N)=O)C(=O)c1csc(Br)c1 | -7.59 |
| CC(C)(NC(=O)c1ccc(-c2ccccc2F)s1)C(N)=O | 12.6 |
| COc1cccc(CN(C)S(=O)(=O)N2CCOCC2)c1 | 2.16 |
| CS(=O)(=O)NCC1CCCN(C(=O)Nc2cccnc2N2CCCC2)C1 (centres undefined) | -0.725 |
| CS(=O)(=O)NCC1CCCN(C(=O)Nc2ccccc2Cl)C1 (centres undefined) | 1.65 |
| O=C(NCc1ccc(OCC2CC2)nc1)c1c(F)cccc1F | -3.71 |
| CN(Cc1cnn(C)c1)C(=O)c1ccc(=O)n(C)n1 | -1.81 |
| CS(=O)(=O)NCC1CCCCN1C(=O)Nc1cccnc1N1CCCC1 (centres undefined) | 39.8 |
| Cc1ccc(S(=O)(=O)NC(=O)c2c(C)noc2C(C)C)cc1C | 0.282 |
| Cc1cc(C2CCCN(C(=O)c3c(C)noc3C)C2)n[nH]1 (centres undefined) | -5.28 |
| CC(NC(=O)c1nc(=O)[nH][nH]1)c1ccc(OCC2CC2)c(F)c1 (centres undefined) | 29.1 |
| COCCn1ccc(NC(=O)Nc2ccc(C(N)=O)c(F)c2)n1 | 13.6 |

| Structure (SMILES) | cytotoxicity at 70.5 h [%] |
| --- | --- |
| COCC(=O)N(C)Cc1cccc(Cl)c1 | 38.1 |
| CN1N=C(C(=O)N(Cc2ccco2)C2CC2)CCC1=O | -9.82 |
| CCOc1nnc(CN(C)C2CCCN(c3cccnn3)C2)s1 (centres undefined) | 3.52 |
| CC1CN(CC(=O)NC(=O)NCc2ccccc2)CCO1 (centres undefined) | 7.19 |
| CC(COc1ccc(F)cc1F)NC(=O)NCCN1CCOCC1 (centres undefined) | -16 |
| CCc1noc(C(C)N2CCN(c3ccc(C#N)cc3F)CC2)n1 (centres undefined) | -24.4 |
| Cc1cc(N2CCN(CC(=O)N(C)C)CC2)nc(-c2ccncc2)n1 | 27.8 |
| NC(=O)C(CNC(=O)Cc1ccc(F)cc1)Cc1ccc(F)cc1 (centres undefined) | -7.46 |
| CCn1cnnc1C1CCN(C(=O)c2ccc3cc[nH]c3c2)CC1 | 5.48 |
| Cc1cc(N2CCN(CCO)CC2)nc(-c2ccncc2)n1 | 0.374 |
| CC(C)NC(=O)Nc1ccc(CS(=O)(=O)C(C)(C)C)cc1 | -12.3 |
| CCOC(=O)c1c(NC(=O)CN2CCN(C(C)=O)CC2)sc2c1CCC2 | -0.965 |
| CCc1nc2n(n1)CC(NCc1nc(C)ccc1O)CC2 (centres undefined) | -8.85 |
| Cc1ccc(CC2CCCN2CC(=O)NCc2ccccn2)cc1 (centres undefined) | 15.4 |
| CCOc1cccc(C(=O)NCCC(=O)Nc2ccncc2)c1 | -19.4 |
| CC(C)Cc1cc(C(=O)NCc2nnc[nH]2)[nH]n1 | -13.4 |
| Cc1cc(C(=O)N2CCCC(n3ccnc3C)C2)c(C)s1 (centres undefined) | -11.2 |
| CC(C)c1nc2n(n1)CC(NCc1ccncc1)CC2 (centres undefined) | -16.7 |
| CCc1cnc(CN(C)C2CCN(CCc3ccccn3)C2)o1 (centres undefined) | 10.2 |
| CN(C)C(C)(C)CNC(=O)C(C)(C)c1ccccc1F | 4.83 |
| Cc1nc(CN2CCCC(N(C)CCc3cccs3)C2)no1 (centres undefined) | 8.18 |
| COc1ccc(CNC(=O)C2(C#N)CCCC2)cc1 | 12.6 |
| CC(C)c1nn(C)c(N(C)C)c1CNC1CCN(C2CC2)CC1 | -2.94 |
